Laboratory results: patent publication US5891916A, “Aromatic hydroxamix acid compounds, their production and use” (Takeda Chemical Industries, Ltd., priority 1995, dated 1999)

System: rat mixed cerebral cell culture
Assay: Neutralizing effect on lipopolysaccharide (LPS)-induced cytotoxicity in a rat mixed cerebral cell culture system (LIC assay)
Assay type: cell-based
Conditions: neonatal rat mixed cerebral cells, 4 to 5 days incubation, MTT, concentration giving 50% recovery rate, read-out: ED50 value
Procedure: Neutralizing effect on lipopolysaccharide (LPS)--induced cytotoxicity in a rat mixed cerebral cell culture system (LIC assay)
LPS, a substance known to activate glial cells (astrocytes, microglia), was added to a rat mixed cerebral cell culture system and the compounds which would neutralize the cytotoxicity induced by LPS were screened by the following method.
(1) Neonatal rat mixed cerebral cell culture
From neonatal Crj:CD (SD) rats (1-3 day old, Charles-River Japan, Ltd), the brains were isolated and placed in ice-cooled D-MEM/10% FCS (Dulbecco's cell culture minimal essential medium supplemented with 10% of fetal calf serum, 100 units/ml of penicillin and 100 gg/ml of streptomycin). Then, mixed cerebral cell culture were treated in the following steps. Incidentally stating, ice-cooled D-MEM/10%FCS was used as the medium.
1. The cerebrum was separated from the enucleated brain and the meninges was removed under a stereoscopic microscope.
2. The cerebrums were placed in a nylon-mesh (100-200 μm) bag for filtration with the aid of a rubber policeman.
3. Using ice-cooled D-MEM/10% FCS, the cells were washed three times (1,000 rpm, 8 min.). Then, this cell suspension was subjected to filtration through a cell strainer (40 μm mesh, Falcon 2340) and the number of viable cells was counted by the trypan blue method.
4. The cells were seeded in a tissue-culture flask (96-well microtiter plate, Nunc) at a cell density of 1×10^5 cells/100 μl/well).
5. One week later, 100 μl/well of D-MEM/10% FCS was added.
6. The plate was further incubated for about 1 to 2 weeks and the neutralizing activity of the test compounds was evaluated by the following method.
(2) Evaluation of neutralizing activity
1. Following the rat mixed cerebral cell culture in (1) above (after 2-3 weeks of incubation), the medium was discarded from the respective wells of the 96-well microtiter plate, and 50 μl/well of fresh D-MEM/2% FCS was added.
2. A test sample and LPS (manufactured by Difco Inc., E. coli 011: B4, Bact) of an adequate concentration, 25 μl per well, were respectively added. D-MEM/2% FCS was employed as the medium.
As the test sample, each of the compounds shown in Table 21 was dissolved in DMSO at a concentration of 10^-2 M and the solution was diluted with D-MEM/2% FCS, which was used for assay.
3. After a suitable period (usually 4 to 5 days) of incubation, the degree of cytotoxic effect was assessed by the microscopic observation, and MTT method.
(3) MTT [3-(4,5-dimethylthiazol-2-yl)-2,5-diphenyltetrazolium bromide] method
MTT dissolved in a phosphate-buffered physiological saline solution (5 mg/ml, manufactured by Sigma Chemical Co.,) was added, 10 μl per well. After 4 to 6 hours of incubation (37° C., under 10% carbon dioxide gas phase), 100 μl/well of 0.01N HCl containing 10% SDS was added to thereby dissolve the formed formazan. After complete dissolution, the absorbance (wave-length 540-590 nm) was measure for each well.
The ED50 values were determined by calculating the recovery rates by means of the following equation and plotting the concentrations of compounds giving a recovery rate of 50% on graph paper.
Recovery rate (%)=(C-B)×100/(A-B)
[A: the absorbance at 550 nm of the control well to which only the medium had been was added
B: the absorbance at 550 nm of the well to which LPS had been added
C: the absorbance at 550 nm of the well to which both LPS and the test compound had been added]

SMILES	EC50 [nM]
N#CC(CCCCCC(=O)NO)(c1ccccc1)c1ccccc1 [Compound 1, 7-Cyano-7,7-diphenylheptanohydroxamic acid]	10
N#CC(CCCCCC(=O)NO)(c1ccccc1)c1ccc(F)cc1 (stereo not drawn) [Compound 3, 7-cyano-7-(4-fluorophenyl)-7-phenylheptanohydroxamic acid]	10
COc1ccccc1C(C#N)(CCCCCC(=O)NO)c1ccccc1 (stereo not drawn) [Compound 4, 7-cyano-7-(2-methoxyphenyl)-7-phenylheptanohydroxamic acid]	10
N#CC(CCCCCC(=O)NO)(c1ccccc1)c1nc2ccccc2s1 (stereo not drawn) [Compound 11, 7-(2-benzothiazolyl)-7-cyano-7-phenylheptanohydroxamic acid]	10
N#CC(CCCCCC(=O)NO)(c1ccccc1)c1ccc2ccccc2n1 (stereo not drawn) [Compound 12, 7-cyano-7-phenyl-7-(2-quinolyl)heptanohydroxamic acid]	10
CCC(=O)ONC(=O)CCCCCC(C#N)(c1ccccc1)c1ccccc1 [Compound 13, O-Propionyl-7-cyano-7,7-diphenylheptanohydroxamic acid]	10
CCC(=O)ONC(=O)CCCCCC(C#N)(c1ccccc1)c1ccc2ccccc2n1 (stereo not drawn) [Compound 20, O-propionyl-7-cyano-7-phenyl-7-(2-quinolyl)heptanohydroxamic acid]	10
N#CC(CCCCCC(=O)NOC(=O)c1ccccc1)(c1ccccc1)c1ccc2ccccc2n1 (stereo not drawn) [Compound 21, O-benzoyl-7-cyano-7-phenyl-7-(2-quinolyl)heptanohydroxamic acid]	10

System: rats pretreated with LPS infused into the unilateral striatum
Assay: Inhibitory effect on the apomorphine-induced circling behavior in rats pretreated with LPS infused into the unilateral striatum
Assay type: in vivo, rat
Conditions: male Wistar rats; i.p. 0.2 ml per 100 g, 30 minutes before LPS infusion and 3 and 24 hours after; apomorphine 1 mg/kg s.c. 7-8 days postoperatively; 30-minute count
Procedure: Inhibitory effect on the apomorphine -induced circling behavior in rats pretreated with LPS infused into the unilateral striatum Male Wistar rats (8-9 week old) weighing 250-280 g at the operation for LPS infusion were submitted to this experiment.. Throughout the experimental period, the animals were group-fed in a vivarium controlled at 24±1° C. and 55±1% R.H., with a light-dark cycle of 12 hr (7:00-19:00 ON) and free access to food (Clea Japan, Inc., CE-2 solid pellets) and water (tap water). Under pentobarbital (50 mg/kg, i.p.) anesthesia, the rat's head was immobilized in David Kopf's brain stereotaxic apparatus for small animal use and with reference to Pellegrino & Cushman's brain atlas, a 30 Gauge stainless steel needle was indwelled in the unilateral striatum (A8.2, L2.8, H4.3). The infusion volume of LPS was set at 5 μg. LPS was dissolved in 1 μl of a phosphate-buffered physiological saline solution (PBS, pH 7.2) and the solution was infused gradually at a speed of 0.2 μl/min. The infusion needle was kept in position till 3 minutes following infusion and withdrawn only after sufficient diffusion of the drug solution had taken place. After 7-8 days postoperatively, 1 mg/kg of apomorphine was administered subcutaneously and the number of induced circling behavior during a 30-minute period immediately following administration were determined with an automatic counter. […]

SMILES	number of induced circling behavior relative to control group [%]
N#CC(CCCCCC(=O)NO)(c1ccccc1)c1ccccc1 [Compound 1, 7-Cyano-7,7-diphenylheptanohydroxamic acid]	41
